Experimental data reported in patent publication US20110281812A1, “Compounds” (priority 2009, published 2011).
Like-named read-outs stand apart in the source and are kept apart here.

Tests used:
[1] = tested on: IL-6 production in LPS-stimulated murine spleenocytes; assay: Inhibition of IL-6 production in LPS-stimulated murine spleenocytes in vitro; type: cell-based; conditions: Mus musculus, 50 μM concentration of the compound, read-out: inhibition of interleukin-6 (IL-6) production
Method: Test and reference substances used in an in vitro assays were dissolved in dimethyl sulfoxide (DMSO) (Sigma Chemical Co., USA) at a concentration of 50 mM and were further diluted to test concentrations in appropriate cell culture medium.
After cervical dislocation, mouse spleens were removed using sterile dissection tools. Spleens were transferred to a pre-wetted cell strainer in a 50 mL sterile conical tube and cell suspension was made by gentle puddle. Cells were centrifuged (20 min, 300×g) and resuspended in 2 mL of sterile phosphate buffered saline (PBS) (Sigma Chemical Co., USA). Red blood cells were lysed by addition of 3 mL of sterile water and occasionally gentle shaking for 1 minute. Afterwards, the tube was filled to 40 mL with DMEM medium and centrifuged (20 min, 300×g). Cells were resuspended in DMEM supplemented with 1% FBS and seeded in a 24-well plate, 1×10^6 cells per mL medium.
Final concentrations of 50 μM, 25 μM, 12.5 μM, 6.3 μM and 3.1 μM of test compounds were prepared by diluting a 50 mM DMSO stock in Dulbecco's modified Eagle medium (DMEM) (Gibco, USA) supplemented with 1% heat inactivated fetal bovine serum (FBS) (BioWest, Ringmer, United Kingdom).
Cells were pre-incubated with the test compounds for 3 h at 37° C., in an atmosphere of 5% CO2 and 90% humidity. Afterwards, cells were stimulated with 1 μg/mL lipopolysaccharide (LPS, E. coli 0111:B4, Sigma Chemical Co., USA) and incubated overnight. Concentration of IL-6 was determined in cell supernatants by sandwich ELISA using capture and detection antibodies (R&D Systems, USA) according to the manufacturer's recommendations.
Inhibition (as percentage) was calculated using the following formula:
% inhibition=[1−(concentration of IL-6 in sample−concentration of IL-6 in negative control)/(concentration of IL-6 in positive control−concentration of IL-6 in negative control)]×100.
The positive control refers to LPS-stimulated samples that were not preincubated with the compounds.
The negative control refers to unstimulated and untreated samples.

[2] = tested on: male BALB/cJ mice; assay: Lung neutrophilia induced by bacterial lipopolysaccharide in male BALB/cJ mice - Method B; type: in vivo; conditions: Mus musculus, ip, 24 h, single dose of 100 mg/kg i.p., vs LPS challenged untreated animals
Method: For intraperitoneal administration (i.p.) compounds were dissolved in a final concentration of 10 mg/mL. The required amount of compound was first dissolved in dimethylsulfoxide (DMSO, Sigma) and then diluted with 0.5% (w/v) methyl-cellulose so that the final DMSO concentration was 5% (v/v). The obtained solution was applied in a dose volume of 0.1 mL per 10 g of animal. Therefore, the compound dose was 100 mg/kg.
Male BALB/cJ mice (Charles River, Germany), with an average weight of ˜25 g were randomly grouped (n=8 in testing group, 10 in positive control and 6-8 in negative control). Mice received intraperitoneally (i.p.) a single dose of 100 mg/kg of test compound. Two hours after administration, 0.4 μg of LPS (from Escherichia coli serotype 0111:B4, Sigma), dissolved in sterile saline (0.9% NaCl) in a volume of 50 μL, was intranasally administered to all experimental groups except the negative control group, which received the same volume of vehicle (saline). Animals were sacrificed approximately 24 hours after application of LPS in order to obtain bronchoalveolar lavage fluid (BALF), which was used to determine absolute number of cells and the percentage of neutrophils. […] In some experiments neutrophil levels in BALF were assessed by measurement of concentration of a neutrophil-specific enzyme myeloperoxidase (MPO). Results are then expressed as percentage of decrease in myeloperoxidase (MPO) concentration measured in BALF lysates of treated animals compared to positive control (Mouse MPO ELISA Kit, Hycult biotechnology, Nederlands). For this purpose, BALF was sonicated after addition of 1.5% Triton-X-100 (Pharmacia Biotech) in Milli-Q water and frozen at −80° C. until analysed.

[3] = Neutrophil, read-out: inhibition of number of neutrophils or decrease in myeloperoxidase concentration in BALF
[4] = read-out: inhibition of total cell number in BALF

| Structure (SMILES) | inhibition at 50 µM [1] [%] | inhibition in vivo at 100 mg/kg [2, 3] [%] | inhibition in vivo at 100 mg/kg [2, 4] [%] |
| --- | --- | --- | --- |
| CC[C@H]1OC(=O)[C@H](C)[C@@H](O[C@H]2C[C@@](C)(OC)[C@@H](O)[C@H](C)O2)[C@H](C)[C@@H](O[C@@H]2O[C@H](C)C[C@H](N(C)C)[C@H]2OCCCNC(=O)CN(C)C)[C@](C)(O)C[C@@H](C)CN(C)[C@H](C)[C@@H](O)[C@]1(C)O [Example 7, 2′-O-{3-[(N,N-Dimethylglycyl)amino]propyl}-9-deoxo-9a-methyl-9a-aza-9a-homoerythromycin A] | > 40 | > 30 | > 30 |
| CC[C@H]1OC(=O)[C@H](C)[C@@H](O[C@H]2C[C@@](C)(OC)[C@@H](O)[C@H](C)O2)[C@H](C)[C@@H](O[C@@H]2O[C@H](C)C[C@H](N(C)C)[C@H]2OCCCNC(=O)CCC(=O)OC)[C@](C)(O)C[C@@H](C)CN(C)[C@H](C)[C@@H](O)[C@]1(C)O [Example 13, 2′-O-(3-{[4-(Methyloxy)-4-oxobutanoyl]amino}propyl)-9-deoxo-9a-methyl-9a-aza-9a-homoerythromycin A] | > 40 | > 50 | > 50 |
| CC[C@H]1OC(=O)[C@H](C)[C@@H](O[C@H]2C[C@@](C)(OC)[C@@H](O)[C@H](C)O2)[C@H](C)[C@@H](O[C@@H]2O[C@H](C)C[C@H](N(C)C)[C@H]2OCCCNC(=O)CCCC(=O)OC)[C@](C)(O)C[C@@H](C)CN(C)[C@H](C)[C@@H](O)[C@]1(C)O [Example 14, 2′-O-(3-{[5-(Methyloxy)-5-oxopentanoyl]amino}propyl)-9-deoxo-9a-methyl-9a-aza-9a-homoerythromycin A] | > 40 | > 30 | > 30 |
| CC[C@H]1OC(=O)[C@H](C)[C@@H](O[C@H]2C[C@@](C)(OC)[C@@H](O)[C@H](C)O2)[C@H](C)[C@@H](O[C@@H]2O[C@H](C)C[C@H](N(C)C)[C@H]2OCCCNC(=O)C2CCC2)[C@](C)(O)C[C@@H](C)CN(C)[C@H](C)[C@@H](O)[C@]1(C)O [Example 15, 2′-O-{3-[(Cyclobutylcarbonyl)amino]propyl}-9-deoxo-9a-methyl-9a-aza-9a-homoerythromycin A] | > 40 | > 30 | > 30 |
| CC[C@H]1OC(=O)[C@H](C)[C@@H](O[C@H]2C[C@@](C)(OC)[C@@H](O)[C@H](C)O2)[C@H](C)[C@@H](O[C@@H]2O[C@H](C)C[C@H](N(C)C)[C@H]2OCCCNC(=O)c2ccoc2)[C@](C)(O)C[C@@H](C)CN(C)[C@H](C)[C@@H](O)[C@]1(C)O [Example 17, 2′-O-{3-[(3-Furanylcarbonyl)amino]propyl}-9-deoxo-9a-methyl-9a-aza-9a-homoerythromycin A] | > 40 | > 50 | > 50 |
| CC[C@H]1OC(=O)[C@H](C)[C@@H](O[C@H]2C[C@@](C)(OC)[C@@H](O)[C@H](C)O2)[C@H](C)[C@@H](O[C@@H]2O[C@H](C)C[C@H](N(C)C)[C@H]2OCCCNC(=O)c2cnc(C)cn2)[C@](C)(O)C[C@@H](C)CN(C)[C@H](C)[C@@H](O)[C@]1(C)O [Example 18, 2′-O-(3-{[(5-Methyl-2-pyrazinyl)carbonyl]amino}propyl)-9-deoxo-9a-methyl-9a-aza-9a-homoerythromycin A] | > 40 | > 50 | > 50 |
| CC[C@H]1OC(=O)[C@H](C)[C@@H](O[C@H]2C[C@@](C)(OC)[C@@H](O)[C@H](C)O2)[C@H](C)[C@@H](O[C@@H]2O[C@H](C)C[C@H](N(C)C)[C@H]2OCCCNC(=O)c2c(C)nn(C)c2C)[C@](C)(O)C[C@@H](C)CN(C)[C@H](C)[C@@H](O)[C@]1(C)O [Example 19, 2′-O-(3-{[(1,3,5-Trimethyl-1H-pyrazol-4-yl)carbonyl]amino}propyl)-9-deoxo-9a-methyl-9a-aza-9a-homoerythromycin A] | > 40 | > 50 | > 50 |
| CC[C@H]1OC(=O)[C@H](C)[C@@H](O[C@H]2C[C@@](C)(OC)[C@@H](O)[C@H](C)O2)[C@H](C)[C@@H](O[C@@H]2O[C@H](C)C[C@H](N(C)C)[C@H]2OCCCNC(=O)c2ccc(C)nc2Cl)[C@](C)(O)C[C@@H](C)CN(C)[C@H](C)[C@@H](O)[C@]1(C)O [Example 35, 2′-O-(3-{[(2-Chloro-6-methyl-3-pyridinyl)carbonyl]amino}propyl)-9-deoxo-9a-methyl-9a-aza-9a-homoerythromycin A] | > 40 | – | – |
| CC[C@H]1OC(=O)[C@H](C)[C@@H](O[C@H]2C[C@@](C)(OC)[C@@H](O)[C@H](C)O2)[C@H](C)[C@@H](O[C@@H]2O[C@H](C)C[C@H](N(C)C)[C@H]2OCCCNC(=O)c2nccnc2N)[C@](C)(O)C[C@@H](C)CN(C)[C@H](C)[C@@H](O)[C@]1(C)O [Example 37, 2′-O-(3-{[(3-Amino-2-pyrazinyl)carbonyl]amino}propyl)-9-deoxo-9a-methyl-9a-aza-9a-homoerythromycin A] | > 40 | – | – |
| CC[C@H]1OC(=O)[C@H](C)[C@@H](O[C@H]2C[C@@](C)(OC)[C@@H](O)[C@H](C)O2)[C@H](C)[C@@H](O[C@@H]2O[C@H](C)C[C@H](N(C)C)[C@H]2OCCCNC(=O)c2c(C)nn(C)c2Cl)[C@](C)(O)C[C@@H](C)CN(C)[C@H](C)[C@@H](O)[C@]1(C)O [Example 38, 2′-O-(3-{[(5-Chloro-1,3-dimethyl-1H-pyrazol-4-yl)carbonyl]amino}propyl)-9-deoxo-9a-methyl-9a-aza-9a-homoerythromycin A] | > 40 | – | – |
| CC[C@H]1OC(=O)[C@H](C)[C@@H](O[C@H]2C[C@@](C)(OC)[C@@H](O)[C@H](C)O2)[C@H](C)[C@@H](O[C@@H]2O[C@H](C)C[C@H](N(C)C)[C@H]2OCCCNC(=O)c2nc(C)oc2C)[C@](C)(O)C[C@@H](C)CN(C)[C@H](C)[C@@H](O)[C@]1(C)O [Example 39, 2′-O-(3-{[(2,5-Dimethyl-1,3-oxazol-4-yl)carbonyl]amino}propyl)-9-deoxo-9a-methyl-9a-aza-9a-homoerythromycin A] | > 40 | – | – |
| CC[C@H]1OC(=O)[C@H](C)[C@@H](O[C@H]2C[C@@](C)(OC)[C@@H](O)[C@H](C)O2)[C@H](C)[C@@H](O[C@@H]2O[C@H](C)C[C@H](N(C)C)[C@H]2OCCCNC(=O)[C@@H]2CCCN2C)[C@](C)(O)C[C@@H](C)CN(C)[C@H](C)[C@@H](O)[C@]1(C)O [Example 40, 2′-O-{3-[(1-Methyl-L-prolyl)amino]propyl}-9-deoxo-9a-methyl-9a-aza-9a-homoerythromycin A] | > 40 | – | – |
| CC[C@H]1OC(=O)[C@H](C)[C@@H](O[C@H]2C[C@@](C)(OC)[C@@H](O)[C@H](C)O2)[C@H](C)[C@@H](O[C@@H]2O[C@H](C)C[C@H](N(C)C)[C@H]2OCCCNC(=O)CC(C)C)[C@](C)(O)C[C@@H](C)CN(C)[C@H](C)[C@@H](O)[C@]1(C)O [Example 41, 2′-O-{3-[(3-Methylbutanoyl)amino]propyl}-9-deoxo-9a-methyl-9a-aza-9a-homoerythromycin A] | > 40 | – | – |
